In PMC7955031, “Facile accelerated specific therapeutic (FAST) platform develops antisense therapies to counter multidrug-resistant bacteria” (Communications Biology, 2021):

What was measured:
[1] = system: ESBL KPN; test: Antibiotic resistance screening (MIC); format: cell-based, Klebsiella pneumoniae; details: for Antibiotic resistance characterization (R/S/I): 24 h
Protocol: (§1) The clinical isolates were obtained from the lab of Nancy Madinger at the University of Colorado Anschutz campus. Clinical isolates were grown in Cation Adjusted Mueller–Hinton broth (CAMHB) (Becton, Dickinson and Company 212322) at 37 °C with 225 rpm shaking or on solid CAMHB with 1.5% agar at 37 °C. Clinical isolates were maintained as freezer stocks in […], 40% glycerol at −80 °C. Freezer stocks were streaked out onto solid CAMHB and incubated for 16 h to produce single colonies prior to experiments. For each biological replicate, a single colony was picked from solid media and grown for 16 h in liquid CAMHB prior to experiments. Non-clinical isolates, such as E. coli MG1655 (ATCC700926) and Salmonella enterica serovar Typhimurium SL1344, expressing GFP from the chromosome (rpsm::gfp)[54], were cultured in liquid 2% lysogeny broth (LB) or on 2% LB with 1.5% agar for solid plates. SL1344 cultures were supplemented with 30 µg/mL streptomycin and SL1344 strains containing plasmids pFPV (target STm) or pRG1 modified with a lacIq promotor (SL1344-holin) were supplemented with 100 µg/mL ampicillin. Freezer stocks were stored in 60% LB broth, 40% glycerol at −80 °C. Freezer stocks were streaked out onto solid LB and incubated for 16 h to produce single colonies before experiments. For biological replicates, single colonies were started in liquid LB and grown for 16 h prior to experiments. E. coli MG1655 PNA growth experiments were carried out in M9 media (1x M9 minimal media salts solution (MP Biomedicals), 2.0 mM MgSO4, and 0.1 mM CaCl2 in sterile water) with 0.4% glucose.
Sensitive/resistant breakpoints were taken from the 2016–2017 Clinical & Laboratory Standards Institute report[41] (Table S1). Liquid cultures of the clinical strains were diluted to a 0.5 McFarland standard and added to the respective antibiotic test condition. […] Strains were “sensitive” if the MIC was equal to or below the sensitive-breakpoint concentration, “resistant” if the MIC was greater than or equal to the resistant-breakpoint concentration, and “intermediate” if the MIC was in-between.

[2] = system: CRE E. coli; format: cell-based, Escherichia coli; details: concentration range at which 90% of growth inhibition occurs at 24 hours, Table S2
Protocol: as §1, with “For biological replicates, single colonies were started in liquid LB and grown for 16 h prior to experiments. E. coli MG1655 PNA growth experiments were carried out in M9 media (1x M9 minimal media salts solution (MP Biomedicals), 2.0 mM MgSO4, and 0.1 mM CaCl2 in sterile water) with 0.4% glucose.” left out

[3] = system: MDR E. coli; format: cell-based, Escherichia coli; details: concentration range at which 90% of growth inhibition occurs at 24 hours, Table S2
Protocol: as §1, with “For biological replicates, single colonies were started in liquid LB and grown for 16 h prior to experiments. E. coli MG1655 PNA growth experiments were carried out in M9 media (1x M9 minimal media salts solution (MP Biomedicals), 2.0 mM MgSO4, and 0.1 mM CaCl2 in sterile water) with 0.4% glucose.” left out

[4] = system: MDR STm; format: cell-based, Salmonella enterica serovar Typhimurium; details: concentration range at which 90% of growth inhibition occurs at 24 hours, Table S2
Protocol: as §1, with “For biological replicates, single colonies were started in liquid LB and grown for 16 h prior to experiments. E. coli MG1655 PNA growth experiments were carried out in M9 media (1x M9 minimal media salts solution (MP Biomedicals), 2.0 mM MgSO4, and 0.1 mM CaCl2 in sterile water) with 0.4% glucose.” left out

[5] = system: NDM-1 KPN; format: cell-based, Klebsiella pneumoniae; details: concentration range at which 90% of growth inhibition occurs at 24 hours, Table S2
Protocol: as §1, with “For biological replicates, single colonies were started in liquid LB and grown for 16 h prior to experiments. E. coli MG1655 PNA growth experiments were carried out in M9 media (1x M9 minimal media salts solution (MP Biomedicals), 2.0 mM MgSO4, and 0.1 mM CaCl2 in sterile water) with 0.4% glucose.” left out

Compound: CC1(C)S[C@@H]2[C@H](NC(=O)[C@H](N)c3ccccc3)C(=O)N2[C@H]1C(=O)O [AMP, ampicillin]
- Antibiotic resistance characterization (R/S/I) [1]: R

Compound: O=C(N[C@H](CO)[C@H](O)c1ccc([N+](=O)[O-])cc1)C(Cl)Cl [CHL, chloramphenicol]
- Antibiotic resistance characterization (R/S/I) [1]: S

Compound: NC[C@H]1O[C@H](O[C@H]2[C@H](O)[C@@H](O[C@H]3O[C@H](CO)[C@@H](O)[C@H](N)[C@H]3O)[C@H](N)C[C@@H]2N)[C@H](O)[C@@H](O)[C@@H]1O [KAN, kanamycin]
- Antibiotic MIC90 [2]: > 64 µg/mL
- Antibiotic MIC90 [3]: < 16 µg/mL
- Antibiotic MIC90 ([1]; ESBL KPN, concentration range at which 90% of growth inhibition occurs at 24 hours, Table S2): > 64 µg/mL
- Antibiotic MIC90 [4]: < 16 µg/mL
- Antibiotic MIC90 [5]: > 64 µg/mL

Compound: CCn1cc(C(=O)O)c(=O)c2ccc(C)nc21 [NXA, nalidixic acid]
- Antibiotic resistance characterization (R/S/I) [1]: R
